# Results: ChEMBL document CHEMBL1201862, “PubChem BioAssay data set” (2004)
# Active and inactive are the calls of the source.
# How the values were obtained:
# Cytochrome P450 1A2 = biological target: T1, Cytochrome P450 1A2 (Homo sapiens, UniProt P05177);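 also: PubChem cytochrome P450 panel assay, CYP1A2 panel member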
# T1 sequence (P05177 whole entry): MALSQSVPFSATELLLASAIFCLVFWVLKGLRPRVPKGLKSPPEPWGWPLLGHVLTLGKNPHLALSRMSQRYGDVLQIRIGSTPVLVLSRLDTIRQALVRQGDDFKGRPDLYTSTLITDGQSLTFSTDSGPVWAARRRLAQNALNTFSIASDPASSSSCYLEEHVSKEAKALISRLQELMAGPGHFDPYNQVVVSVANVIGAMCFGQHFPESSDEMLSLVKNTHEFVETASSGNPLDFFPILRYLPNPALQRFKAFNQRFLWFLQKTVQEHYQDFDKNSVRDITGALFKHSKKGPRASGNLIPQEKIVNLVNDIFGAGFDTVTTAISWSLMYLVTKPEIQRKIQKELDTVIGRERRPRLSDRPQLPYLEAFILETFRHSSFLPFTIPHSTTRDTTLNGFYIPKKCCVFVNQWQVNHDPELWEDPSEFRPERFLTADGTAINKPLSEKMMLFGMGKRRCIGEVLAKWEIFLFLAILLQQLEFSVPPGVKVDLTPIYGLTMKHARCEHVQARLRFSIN
# Cytochrome P450 3A4 = Cytochrome P450 3A4 (Homo sapiens, UniProt P08684);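 also: CYP3A4 tested as one member of a cytochrome P450 panel screen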
# [1] = biological target: T2, Heat shock factor protein 1 (Mus musculus, UniProt P38532); assay: HSF1 potentiators in luciferase reporter cells, confirmation, cell-based, NIH3T3, luminescence, dose retest (AID 435004); type: functional;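 also: stress induced by proteasome inhibitor MG132 added 30 min after compound; luciferase reporter driven by HSF1 response element in NIH3T3 cells; actives raise luminescence as potentiators of the MG132 stress response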
# T2 sequence (P38532 whole entry): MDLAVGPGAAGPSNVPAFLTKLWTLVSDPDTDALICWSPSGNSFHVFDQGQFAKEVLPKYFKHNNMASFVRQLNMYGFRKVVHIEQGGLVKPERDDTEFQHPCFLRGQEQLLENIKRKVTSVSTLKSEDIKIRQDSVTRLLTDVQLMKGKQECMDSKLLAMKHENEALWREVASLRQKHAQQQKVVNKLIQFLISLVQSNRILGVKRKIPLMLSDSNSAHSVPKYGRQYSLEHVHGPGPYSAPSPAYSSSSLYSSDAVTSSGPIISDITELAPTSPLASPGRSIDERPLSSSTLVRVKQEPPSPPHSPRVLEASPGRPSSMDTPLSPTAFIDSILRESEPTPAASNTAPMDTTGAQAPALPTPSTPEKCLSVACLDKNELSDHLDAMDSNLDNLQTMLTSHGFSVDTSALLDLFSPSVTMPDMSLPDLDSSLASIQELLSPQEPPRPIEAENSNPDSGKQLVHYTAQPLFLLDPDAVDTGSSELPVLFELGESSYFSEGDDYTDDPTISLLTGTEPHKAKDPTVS
# [2] = biological target: T3, Long-chain-fatty-acid--AMP ligase FadD28 (Mycobacterium tuberculosis, UniProt P9WQ59); assay: Fluorescence polarization aasay to screen for inhibitors that compete for the binding of FadD28 to a bisubstrate Measured in Biochemical System Using Plate Reader - 2147-01_Inhibitor_Dose_CherryPick_Activity.; type: functional, Mycobacterium tuberculosis H37Rv
# T3 sequence (P9WQ59 whole entry): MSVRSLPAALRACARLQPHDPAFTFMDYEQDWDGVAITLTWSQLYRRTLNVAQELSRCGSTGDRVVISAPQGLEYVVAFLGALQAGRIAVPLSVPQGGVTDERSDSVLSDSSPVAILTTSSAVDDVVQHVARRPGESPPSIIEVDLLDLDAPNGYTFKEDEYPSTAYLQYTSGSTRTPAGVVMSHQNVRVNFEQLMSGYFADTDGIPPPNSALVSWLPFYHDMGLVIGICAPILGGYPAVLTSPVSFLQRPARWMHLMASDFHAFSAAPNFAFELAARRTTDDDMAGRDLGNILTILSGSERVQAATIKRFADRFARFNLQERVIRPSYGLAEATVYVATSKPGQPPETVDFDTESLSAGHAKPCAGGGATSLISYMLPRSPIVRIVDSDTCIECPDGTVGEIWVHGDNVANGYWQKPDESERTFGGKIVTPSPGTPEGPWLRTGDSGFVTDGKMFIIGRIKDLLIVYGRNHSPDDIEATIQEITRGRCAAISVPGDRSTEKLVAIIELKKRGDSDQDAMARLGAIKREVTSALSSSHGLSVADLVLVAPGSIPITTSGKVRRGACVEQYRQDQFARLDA
# Cytochrome P450 2D6 [3] = biological target: T4, Cytochrome P450 2D6 (Homo sapiens, UniProt P10635);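 also: CYP2D6 member of a cytochrome P450 panel assay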
# Cytochrome P450 2C19 = Cytochrome P450 2C19 (Homo sapiens, UniProt P33261); assay: Cytochrome panel assay with activity outcomes. Panel member name: p450-cyp2c19 Compounds with AC50 equal or less than 10 uM are considered active; type: functional
# [4] = HEp-2 cell cytotoxicity, dose response, cytotoxicity control for RSV inhibitor project, HTS (AID 2410); type: functional; details: human respiratory syncytial virus
# [5] = biological target: T5, Carboxy-terminal domain RNA polymerase II polypeptide A small phosphatase 1 (Homo sapiens, UniProt Q9GZU7); assay: inhibitors of CTDSP1, concentration-response testing, biochemical assay, absorbance-based, actives from ultra-high-throughput screening (AID 540297); type: functional
# T5 sequence (Q9GZU7 whole entry): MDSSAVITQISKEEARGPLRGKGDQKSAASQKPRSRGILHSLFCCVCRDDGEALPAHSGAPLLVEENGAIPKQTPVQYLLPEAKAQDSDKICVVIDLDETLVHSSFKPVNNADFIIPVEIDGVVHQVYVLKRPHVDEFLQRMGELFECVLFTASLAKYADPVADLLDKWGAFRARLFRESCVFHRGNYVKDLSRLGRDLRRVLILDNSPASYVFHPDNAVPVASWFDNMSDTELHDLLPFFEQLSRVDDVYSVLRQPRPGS
# [6] = biological target: Glucose-6-phosphate 1-dehydrogenase (Homo sapiens, UniProt P11413); assay: human G6PD enzyme inhibitors, dose response, selectivity assay for P. falciparum G6PD inhibitor project, biochemical, fluorescence (AID 504792); type: functional
# [7] = biological target: T6, Low molecular weight phosphotyrosine protein phosphatase (Homo sapiens, UniProt P24666); type: functional; details: read-out: IC50_Mean;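 also: Dose-response confirmation assay measuring inhibition of LMPTP enzyme activity by fluorescence intensity read-out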
# T6 sequence (P24666 whole entry): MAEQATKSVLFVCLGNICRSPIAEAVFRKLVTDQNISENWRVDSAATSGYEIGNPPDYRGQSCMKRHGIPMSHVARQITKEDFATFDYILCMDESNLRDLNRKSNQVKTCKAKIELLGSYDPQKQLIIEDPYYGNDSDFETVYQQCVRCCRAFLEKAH
# cells [8] = type: functional, cell-based
# cells [9] = type: functional, cell-based; remark: listed apart in the source
# cells [10] = type: functional
# Streptococcus = assay: Group A Streptococcus viability loss, dose response, counter-screen for streptokinase expression inhibitor project, luminescence, BacTiterGlo (AID 1915); type: functional, organism-based;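 also: potency for reduction of bacterial viability or growth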
# [11] = system: Streptococcus sp. 'group A'; assay: growth inhibition of control SK(-) GAS strain, dose response, counter-screen for streptokinase expression inhibitor project, luminescence, kanamycin, BacTiterGlo, confirmation (AID 1900); type: functional, organism-based
# Cytochrome P450 2D6 [12] = biological target: T4, Cytochrome P450 2D6; remark: listed apart in the source
# Cytochrome P450 2C9 = Cytochrome P450 2C9 (Homo sapiens, UniProt P11712)
# [13] = Vero E6 cell cytotoxicity, dose response, cytotoxicity control for non-replicating M. tuberculosis project, secondary assay (AID 492998); type: functional, VeroE6; details: Vero C1008
# [14] = THP-1 cell cytotoxicity, dose response, cytotoxicity control for non-replicating M. tuberculosis project (AID 489025); type: functional
# [15] = A549 cell cytotoxicity, dose response, cytotoxicity control, plate reader, cherry-pick, antagonist series (AID 743412); type: functional, cell-based
# [16] = MC4R antagonists, dose response, counter-screen for LGR2 antagonist project, cell-based, plate reader, cherry pick (AID 743444); type: functional;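 also: transfected HEK 293 cells stimulated with alpha-MSH peptide; potency of inhibitors of the alpha-MSH evoked signal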
# [17] = LGR2 antagonists, dose response, cell-based, HEK293, CRE-luciferase reporter, cherry pick, set 2 (AID 743343); type: functional;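 also: transfected cells were stimulated with diluted bursicon conditioned medium after compound addition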
# P388 = assay: cells; type: functional; details: Mus musculus
# SN12K1 = assay: cells; type: functional; details: Homo sapiens
# P388/ADR = assay: cells; type: functional; details: Mus musculus
# [18] = biological target: Dual specificity tyrosine-phosphorylation-regulated kinase 1A (Rattus norvegicus, UniProt Q63470); type: biochemical, Homo sapiens
# [19] = biological target: Luciferin 4-monooxygenase (Photinus pyralis, UniProt P08659); assay: firefly luciferase enzyme inhibitors, dose response, biochemical, luminescence (AID 1891)
# [20] = non-specific cell cytotoxicity, dose response, cytotoxicity control for PAX8 inhibitor project, plate reader, dry powder samples (AID 743021); type: functional, cell-based
# [21] = Luminescence Cell-Based Dose Confirmation HTS to Identify Inhibitors of Platelet Dense Granule Release. [Related pubchem assays: 1663 (Primary HTS), 1678 (Summary of Project)]; type: functional
# Sequence of Cytochrome P450 3A4 (P08684 whole entry): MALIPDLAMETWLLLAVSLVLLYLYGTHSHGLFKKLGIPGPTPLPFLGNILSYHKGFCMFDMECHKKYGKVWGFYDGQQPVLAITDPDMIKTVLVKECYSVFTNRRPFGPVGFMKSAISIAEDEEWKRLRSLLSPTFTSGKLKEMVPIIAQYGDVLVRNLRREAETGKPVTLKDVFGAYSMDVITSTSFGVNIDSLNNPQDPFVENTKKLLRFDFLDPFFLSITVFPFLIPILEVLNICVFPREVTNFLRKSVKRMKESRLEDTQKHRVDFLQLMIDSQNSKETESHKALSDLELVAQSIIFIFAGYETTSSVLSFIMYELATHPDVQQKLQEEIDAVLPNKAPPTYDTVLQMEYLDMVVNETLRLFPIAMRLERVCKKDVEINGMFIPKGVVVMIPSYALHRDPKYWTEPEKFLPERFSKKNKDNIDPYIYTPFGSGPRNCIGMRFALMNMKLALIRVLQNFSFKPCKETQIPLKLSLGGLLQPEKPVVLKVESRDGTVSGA
# Sequence of Cytochrome P450 2C19 (P33261 whole entry): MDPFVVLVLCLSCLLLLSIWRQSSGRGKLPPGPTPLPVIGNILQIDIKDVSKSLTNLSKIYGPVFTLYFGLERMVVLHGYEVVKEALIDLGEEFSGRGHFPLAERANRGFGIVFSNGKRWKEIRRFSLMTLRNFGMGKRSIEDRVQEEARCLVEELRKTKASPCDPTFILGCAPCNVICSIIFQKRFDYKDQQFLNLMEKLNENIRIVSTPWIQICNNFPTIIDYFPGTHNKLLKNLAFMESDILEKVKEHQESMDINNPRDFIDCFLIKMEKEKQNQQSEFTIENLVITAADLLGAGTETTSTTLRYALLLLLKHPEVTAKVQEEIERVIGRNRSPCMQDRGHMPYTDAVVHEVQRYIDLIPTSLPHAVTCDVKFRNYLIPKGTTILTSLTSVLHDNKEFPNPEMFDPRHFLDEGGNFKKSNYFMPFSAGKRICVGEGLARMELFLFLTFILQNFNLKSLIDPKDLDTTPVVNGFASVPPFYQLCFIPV
# T4 sequence (P10635 whole entry): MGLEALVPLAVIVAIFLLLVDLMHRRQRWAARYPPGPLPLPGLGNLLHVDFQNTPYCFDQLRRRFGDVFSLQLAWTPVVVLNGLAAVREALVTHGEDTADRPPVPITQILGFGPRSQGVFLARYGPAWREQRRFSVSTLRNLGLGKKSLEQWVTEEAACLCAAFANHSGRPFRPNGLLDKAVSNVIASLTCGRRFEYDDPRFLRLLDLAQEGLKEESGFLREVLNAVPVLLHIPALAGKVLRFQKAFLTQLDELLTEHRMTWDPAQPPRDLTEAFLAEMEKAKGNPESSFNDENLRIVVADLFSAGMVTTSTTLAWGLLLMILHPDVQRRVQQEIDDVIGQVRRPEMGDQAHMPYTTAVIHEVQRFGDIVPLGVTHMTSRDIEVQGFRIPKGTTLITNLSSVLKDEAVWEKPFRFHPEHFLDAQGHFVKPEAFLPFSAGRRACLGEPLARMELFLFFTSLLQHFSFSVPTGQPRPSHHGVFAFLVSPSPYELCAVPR
# Sequence of Glucose-6-phosphate 1-dehydrogenase (P11413 whole entry): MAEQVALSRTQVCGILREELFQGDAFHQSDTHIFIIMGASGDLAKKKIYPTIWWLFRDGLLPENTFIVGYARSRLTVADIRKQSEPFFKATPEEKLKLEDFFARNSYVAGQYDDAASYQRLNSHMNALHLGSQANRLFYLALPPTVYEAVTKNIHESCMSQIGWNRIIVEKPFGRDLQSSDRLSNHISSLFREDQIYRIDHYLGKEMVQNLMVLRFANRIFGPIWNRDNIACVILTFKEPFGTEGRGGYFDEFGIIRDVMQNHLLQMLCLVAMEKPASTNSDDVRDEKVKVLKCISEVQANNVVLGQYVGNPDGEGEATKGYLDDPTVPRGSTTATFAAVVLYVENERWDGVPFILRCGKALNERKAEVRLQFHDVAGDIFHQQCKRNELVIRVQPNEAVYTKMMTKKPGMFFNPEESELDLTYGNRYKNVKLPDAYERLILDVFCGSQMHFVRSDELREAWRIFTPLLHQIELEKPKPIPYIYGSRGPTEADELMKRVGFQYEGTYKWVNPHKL
# Sequence of Luciferin 4-monooxygenase (P08659 whole entry): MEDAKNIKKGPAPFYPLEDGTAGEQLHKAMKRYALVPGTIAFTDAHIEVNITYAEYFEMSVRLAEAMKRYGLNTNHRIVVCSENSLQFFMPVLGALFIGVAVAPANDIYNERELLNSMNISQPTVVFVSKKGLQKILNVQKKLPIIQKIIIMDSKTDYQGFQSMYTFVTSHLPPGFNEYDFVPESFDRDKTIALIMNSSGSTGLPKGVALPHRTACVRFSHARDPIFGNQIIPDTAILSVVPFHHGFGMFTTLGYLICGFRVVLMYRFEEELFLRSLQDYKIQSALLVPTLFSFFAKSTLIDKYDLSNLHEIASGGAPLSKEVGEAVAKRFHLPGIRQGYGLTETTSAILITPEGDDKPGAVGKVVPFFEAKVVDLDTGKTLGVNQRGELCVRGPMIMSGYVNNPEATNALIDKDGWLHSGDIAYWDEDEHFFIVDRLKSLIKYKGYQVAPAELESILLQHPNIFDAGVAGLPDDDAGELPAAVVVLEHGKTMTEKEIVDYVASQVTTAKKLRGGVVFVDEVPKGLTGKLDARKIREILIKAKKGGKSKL
# Sequence of Cytochrome P450 2C9 (P11712 whole entry): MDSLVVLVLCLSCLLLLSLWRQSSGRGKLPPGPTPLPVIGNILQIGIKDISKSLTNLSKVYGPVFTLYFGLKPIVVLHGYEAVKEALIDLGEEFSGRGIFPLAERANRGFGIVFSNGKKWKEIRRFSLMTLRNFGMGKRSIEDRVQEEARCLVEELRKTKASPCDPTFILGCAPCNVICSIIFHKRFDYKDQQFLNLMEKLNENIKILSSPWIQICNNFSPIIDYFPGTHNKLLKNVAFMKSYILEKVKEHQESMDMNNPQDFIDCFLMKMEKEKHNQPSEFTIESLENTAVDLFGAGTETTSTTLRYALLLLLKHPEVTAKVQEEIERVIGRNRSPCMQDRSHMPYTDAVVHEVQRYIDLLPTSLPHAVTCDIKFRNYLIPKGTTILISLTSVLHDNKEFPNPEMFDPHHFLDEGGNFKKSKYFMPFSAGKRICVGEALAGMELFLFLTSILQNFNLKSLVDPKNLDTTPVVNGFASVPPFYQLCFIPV
smiles,measurement,setting,value
O=C1CN(C(=O)c2ccc(Br)o2)C(c2ccc(F)cc2)c2cc(Cl)ccc2N1 (stereo not drawn),AC50,Cytochrome P450 1A2,0.0631 µM (inconclusive)
same,AC50,Cytochrome P450 3A4,inconclusive
same,EC50,[1],> 260 µM (inactive)
COc1cccc2sc(NN)nc12,AC50,[2],> 100 µM (inactive)
COC(=O)c1ccc(NC(=O)N2CCC(O)(c3cccnc3)CC2)cc1,AC50,Cytochrome P450 2D6 [3],15.8 µM (inconclusive)
same,AC50,Cytochrome P450 2C19,inconclusive
same,AC50,Cytochrome P450 3A4,inconclusive
CC(C)c1ccc(/C=C2\SC(=O)N(CC(=O)NC3C=CS(=O)(=O)C3)C2=O)cc1 (stereo not drawn),CC50,[4],18.8 µM (active)
same,IC50,[5],11.8 µM (active)
O=C(CNC(=O)c1ccco1)OCC(=O)c1ccc([N+](=O)[O-])cc1,IC50,[6],> 80 µM (inactive)
COc1ccc(C(=O)N2CCC3(CC2)CCN(c2ncccn2)CC3)cc1,AC50,Cytochrome P450 2D6 [3],20 µM (inconclusive)
same,AC50,Cytochrome P450 3A4,inconclusive
O=C(O)c1ccc(/C=N/NC(=O)c2cc3c(ccc4ccccc43)o2)cc1,IC50,[7],16.2 µM (active)
NCc1c(O)ccc2ccccc12,EC50,cells [8],> 29.9 µM (inactive)
same,IC50,cells [9],> 29.9 µM (inactive)
CCC(CC)c1nnc(NC(=O)c2ccc3ccccc3n2)s1,AC50,Cytochrome P450 2C19; read-out: AC50,28.2 µM (active)
same,IC50,cells [10],0.42 µM (active)
same,EC50,Streptococcus,12.5 µM (active)
same,AC50,Cytochrome P450 1A2,2.51 µM (active)
same,EC50,[11],8.53 µM (active)
same,AC50,Cytochrome P450 2D6 [12],inactive
same,AC50,Cytochrome P450 2C9,7.94 µM (active)
same,CC50,[13],18.4 µM (active)
same,CC50,[14],> 40 µM (active)
COC(=O)[C@](C)(N)Cc1ccc(O)cc1,AC50,Cytochrome P450 3A4,inconclusive
Cc1ccc2[nH]c(-c3ccc(NC(=O)C4CCCO4)cc3)nc2c1 (stereo not drawn),AC50,[15],> 52 µM (inactive)
same,AC50,[16],11.9 µM (active)
same,AC50,[17],5.48 µM (active)
O=c1cc(Nc2ccc3c(c2)OCCO3)[nH]c(=O)n1C1CCCCC1,AC50,[2],61.1 µM (active)
C=CCn1cc(CN2CCC(C(=O)Nc3ccc(Oc4cccnc4)cc3)CC2)c(C)n1,AC50,[2],21 µM (active)
CC1=CCCC2C1(C)CCC(C)C2(C)Cc1cc(O)ccc1O (stereo not drawn),GI50,P388,1.37 µM (inactive)
same,GI50,SN12K1,4.2 µM (inactive)
same,GI50,P388/ADR,1.63 µM (inactive)
Cc1ccc(/C=N/NC(=O)c2cccs2)cc1[N+](=O)[O-],AC50,Cytochrome P450 2D6 [3],0.0251 µM (inconclusive)
same,AC50,Cytochrome P450 2C19; read-out: AC50,31.6 µM (inconclusive)
same,AC50,Cytochrome P450 3A4,inconclusive
CC1C(=O)C(C)C(c2ccccc2)N(N=O)C1c1ccccc1 (stereo not drawn),GI50,P388,> 100 µM (inactive)
same,GI50,SN12K1,42.8 µM (inactive)
same,GI50,P388/ADR,> 100 µM (inactive)
CCCCN.N#C/C(=C\c1ccc(O)cc1)C(=O)O,AC50,[18],3.24 µM (active)
Cc1cccc(NC(=O)CN2C(=O)S/C(=C\c3cc(C)n(C)c3C)C2=O)c1,AC50,[2],0.381 µM (active)
Cc1ccc(-c2csc(NC(=O)c3ccc(Br)cc3)c2C(=O)O)cc1,IC50,[6],> 80 µM (inactive)
CN(C)CCN1C(=O)c2cccc3cc(N)cc(c23)C1=O [AMONAFIDE],GI50,P388,0.524 µM (active)
same,GI50,SN12K1,2.15 µM (inactive)
same,GI50,P388/ADR,1.14 µM (inactive)
CN(C)S(=O)(=O)c1ccc(C(=O)NCC(=O)N/N=C/c2ccccc2)cc1,EC50,cells [8],> 29.9 µM (inactive)
same,IC50,cells [9],> 29.9 µM (inactive)
C[C@H](N)C(=O)N[C@@H]1[C@H]2C(=C(O)C[C@@H](O)[C@@H]2O)C(=O)O[C@]1(C)C(Cl)Cl [BACTOBOLIN],GI50,P388,0.0807 µM (active)
same,GI50,SN12K1,0.297 µM (active)
same,GI50,P388/ADR,0.303 µM (active)
COc1cccc(CC(=O)Nc2nc3c(s2)C(=O)CC(C)(C)C3)c1,EC50,[19],> 112 µM (not active)
same,AC50,[20],41.9 µM (active)
same,EC50,[21],> 112 µM (not active)
COc1cc2c(cc1NC(=O)CSc1nc3ccccc3[nH]1)oc1ccccc12,IC50,[5],17.1 µM (active)
CN(C)S(=O)(=O)c1ccc(NC(=O)Cc2ccc(S(=O)(=O)N3CCOCC3)s2)cc1,IC50,[5],9.34 µM (active)
O=P1(NCCCl)OCCCN1CCCl (stereo not drawn) [IFOSFAMIDE],GI50,P388,232 µM (inactive)
same,GI50,SN12K1,371 µM (inactive)
same,GI50,P388/ADR,215 µM (inactive)
